Laboratory results: patent US20130045943A1, “A3AR AGONISTS FOR THE TREATMENT OF UVEITIS” (THE GOVERNMENT OF THE UNITED STATES OF AMERICA AS …, priority 2010, published 2013)
Entries after “also recorded” stand apart in the source; their conditions may differ.

Columns and labels:
[1] = tested on: experimental acute uveitis (EAU) induced with IRBP in C57BL/6j mice; test: Experimental autoimmune uveitis (EAU) in mice, disease intensity scored by funduscopy; type: in vivo; conditions: for inhibition of fundoscopy score: oral IB-MECA 10 μg/kg twice daily from day 7
[2] = tested on: experimental acute uveitis (EAU) induced with IRBP in C57BL/6j mice; test: EAU in mice, histopathological grading of enucleated eyes; type: in vivo
[3] = tested on: antigen-specific (IRBP) responses of T cells; test: In vitro antigen-driven proliferation assay (3[H]-thymidine incorporation) of drain lymph node cells from treated mice; type: cell-based, C57BL/6j mice; conditions: lymph node cells from treated animals, cultured 48 hours with IRBP 0.2-20 μg/ml
Description: To explore the immunological effects of IB-MECA on the antigen-specific responses of T cells, an in vitro antigen-driven proliferation assay was performed. Drain lymph nodes (inguinal and iliac) were collected from the IRBP immunized mice, both from the vehicle and from the IB-MECA treated groups. The cells were cultured for 48 hours in the presence of graded doses of IRBP (0.2-20 μg/ml) and proliferation was evaluated by an ^3[H]-thymidine incorporation assay.

Water solubility = type: physicochemical

water solubility (Water solubility): not water soluble
Structure (SMILES): CNC(=O)[C@H]1OC(n2cnc3c(NCc4cccc(I)c4)ncnc32)[C@H](O)[C@@H]1O (stereo partly drawn) [IB-MECA, 1-Deoxy-1-[6-[[(3-iodophenyl)methyl]amino]-9H-purine-9-yl]-N-methyl-D-ribofuranuronamide]
inhibition of fundoscopy score ([1]; day 16 after immunization): 91%
inhibition of fundoscopy score ([1]; day 20 after immunization): 49.4%
development of EAU (FIG. 1) ([1]; result in words): inhibited
histopathological score of EAU (FIG. 2) ([2]; result in words): decreased
inhibition of pathological score in comparison to the vehicle-treated group ([2]; upon study termination, oral IB-MECA 10 μg/kg twice daily from day 7): 53%
T cell response to IRBP (proliferation) [3]: moderate response; also recorded: ameliorates
